Assays:
Macrophages = experiment: MTT cell viability assay with CBD; format: cell-based; details: increasing CBD concentrations (FIG. 2)
Experimental: FIG. 2 includes a vertical bar graph showing the effect of CBD on cell viability. MTT assay was performed in the presence of increasing CBD concentrations.
The inventors initially examined the sole effect of cannabidiol (CBD) on nitric oxide (NO) production. Macrophages were stimulated, and NO production was examined in the presence of increasing CBD concentrations, ranging from 0.05 µM to 50 µM.

[1] = system: nitric oxide (NO) production; experiment: NO production assay in LPS-stimulated peritoneal macrophages (Griess reagent); format: cell-based, mice; details: CBD alone, 0.05 µM to 50 µM (FIG. 1)
Experimental: Macrophage isolation and cell culture - Peritoneal macrophages were collected from the peritoneal cavity of 6-8-week-old male ICR mice (Harlan, Israel) given an intraperitoneal injection of 1.5 ml of thioglycollate broth (4%) 4 days before harvest. Peritoneal macrophages were washed three times with PBS and if needed a hypotonic lysis of erythrocytes was performed, yielding 90-95% purity. The macrophages were identified by fluorescence-activated cell sorting (FACS) analysis using FITC-conjugated rat antimouse F4/80 (MCA497F; Serotec, Oxford, England) by flow microfluorimetry on FACS (Becton Dickinson, Mountain View, CA). For each sample, 10,000 light scatter-gated viable cells were analyzed. […]
To the control groups, appropriate volumes of DMSO (0.1-0.2%) were added. The percent inhibition of each experimental group was calculated comparatively to the relevant and corresponding control.
NO production assay —NO levels in supernatants of cell cultures were determined by assaying nitrite levels using Griess reagent and sodium nitrite as a standard.
Peritoneal macrophages were incubated with the compounds 1 h before addition of LPS and cultured overnight. NO production was determined in the supernatant of the cultures and the % of inhibition from untreated macrophages was determined. […]

nitric oxide (NO) = experiment: NO production in bone marrow derived macrophages treated with an inflammatory stimulus (lycopene, CBDA); format: cell-based; details: CBDA alone, 2.5 µM, 5 µM, 10 µM (FIG. 8A)
Experimental: Bone marrow derived macrophages were treated with an inflammatory stimulus in the presence of various concentration of lycopene, cannabidiolic acid (CBDA), tomato extract and hemp extract in vitro. As an inflammatory outcome, nitric oxide (NO) was monitored.
Full Study with test material and benchmarks - Cells were treated with tomato and hemp extract for 24 hours to determine viability. Cells were then treated as follows; (1) medium alone (unstimulated control), (2) LPS stimulation- 10 µg/mL, (3) each crude extracts (Tomato/Hemp) at concentration of IC50, (4) LPS + crude extracts, (5) control inhibitor, and (6) LPS + control inhibitor. The tomato and hemp extract and benchmarks (lycopene, CBDA) were tested in 5 different rations; 1:10, 1:5, 1:1, 5:1, 10:1.
Nitric oxide production was determined for each treatment.

With `C=C(C)[C@@H]1CCC(C)=C[C@H]1c1c(O)cc(CCCCC)cc1O` [CBD, 2-[(6R)-3-Methyl-6-prop-l-en-2-yl-lcyclohex-2-envyl]-5pentylbenzene-l,3-diol] the “CBD concentration toxic to the cells (cell viability, MTT)” value (Macrophages) was ≥ 25 µM and the “% of NO production inhibition” value [1] was “increased in a CBD dose-dependent manner”.
For `C=C(C)[C@@H]1CCC(C)=C[C@H]1c1c(O)cc(CCCCC)c(C(=O)O)c1O` [CBDA, cannabidiolic acid], the “inhibition of NO production” value (nitric oxide (NO)) was “inhibits NO production in a dose dependent manner”.
